In publication PMC2928581 (Nature communications, 2010):

Biological target: TRPML1 (ML1) (Mus musculus, UniProt Q99J21)
Assay: whole-endolysosome patch clamp, current activation
Format: biochemical

Chain of TRPML1 (ML1) (Q99J21 whole entry): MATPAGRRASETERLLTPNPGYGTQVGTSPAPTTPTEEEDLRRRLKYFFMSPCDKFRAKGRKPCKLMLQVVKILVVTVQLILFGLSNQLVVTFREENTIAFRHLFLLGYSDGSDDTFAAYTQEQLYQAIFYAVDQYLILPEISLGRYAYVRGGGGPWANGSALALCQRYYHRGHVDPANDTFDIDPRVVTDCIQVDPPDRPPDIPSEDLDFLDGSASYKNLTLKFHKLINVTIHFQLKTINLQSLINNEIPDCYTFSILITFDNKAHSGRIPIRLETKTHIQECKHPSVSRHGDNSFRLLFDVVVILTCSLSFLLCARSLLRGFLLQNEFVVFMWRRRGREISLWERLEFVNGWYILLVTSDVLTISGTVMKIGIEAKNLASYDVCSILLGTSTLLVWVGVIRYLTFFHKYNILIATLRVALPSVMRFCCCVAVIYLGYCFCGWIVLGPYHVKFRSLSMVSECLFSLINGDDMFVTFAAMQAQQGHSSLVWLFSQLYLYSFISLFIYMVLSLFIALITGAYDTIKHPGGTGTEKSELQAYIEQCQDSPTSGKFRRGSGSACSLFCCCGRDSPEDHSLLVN

Question: With CCCCCCCC(=O)OC[C@H](COP(=O)(O)O[C@@H]1[C@H](O)[C@H](OP(=O)(O)O)[C@@H](O)[C@H](OP(=O)(O)O)[C@H]1O)OC(=O)CCCCCCC [PI(3,5)P2 (diC8)] as the molecule, how does the EC50 read?
Answer: 0.048 ± 0.014 µM
